Consider 26 molecules from US20220041572A1, “CYCLOHEPTYL ACIDS AS LPA ANTAGONISTS” (BRISTOL-MYERS SQUIBB COMPANY, priority 2018, published 2022).

In general, IC50 refers to the concentration needed to halve the response being measured.

T1 sequence (Q92633 whole entry): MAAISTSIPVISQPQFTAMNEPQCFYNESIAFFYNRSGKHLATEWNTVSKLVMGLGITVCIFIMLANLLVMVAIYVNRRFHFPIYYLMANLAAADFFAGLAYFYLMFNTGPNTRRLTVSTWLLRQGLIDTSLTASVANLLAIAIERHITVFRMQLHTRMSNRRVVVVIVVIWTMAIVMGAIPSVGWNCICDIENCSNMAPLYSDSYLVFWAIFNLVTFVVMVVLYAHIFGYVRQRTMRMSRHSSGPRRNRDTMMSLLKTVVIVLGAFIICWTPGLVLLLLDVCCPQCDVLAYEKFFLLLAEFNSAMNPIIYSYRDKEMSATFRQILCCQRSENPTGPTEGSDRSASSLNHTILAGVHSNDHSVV

One assay addresses T1, human LPA1 (Homo sapiens, UniProt Q92633).
T1 construct: expressed in transfected cells; host or cells: Chinese hamster ovary (CHO) cells
Nature of the assay: LPA1 functional antagonist assay (LPA-induced calcium flux). To be noted: CHO cells overexpressing human LPA1; inhibition of calcium flux induced by 10 nM LPA; read-out: hLPA1 IC50. Format: cell-based. The method, then: The effectiveness of compounds of the present invention as LPA1 inhibitors can be determined in an LPA1 functional antagonist assay as follows:
Chinese hamster ovary cells overexpressing human LPA1 were plated overnight (15,000 cells/well) in poly-D-lysine coated 384-well microplates (Greiner bio-one, Cat#781946) in DMEM/F12 medium (Gibco, Cat#11039). Following overnight culture, cells were loaded with calcium indicator dye (AAT Bioquest Inc, Cat#34601) for 30 minutes at 37° C. The cells were then equilibrated to room temperature for 30 minutes before the assay. Test compounds solubilized in DMSO were transferred to 384 well non-binding surface plates (Coming, Cat#3575) using the Labcyte Echo acoustic dispense and diluted with assay buffer [1X HBSS with calcium/magnesium (Gibco Cat#14025-092), 20 mM HEPES (Gibco Cat#15630-080) and 0.1% fatty acid free BSA (Sigma Cat#A9205)] to a final concentration of 0.5% DMSO. Diluted compounds were added to the cells by FDSS6000 (Hamamatsu) at final concentrations ranging from 0.08 nM to 5 μM. and were then incubated for 20 min at room temperature at which time LPA (Avanti Polar Lipids Cat#857130C) was added at final concentrations of 10 nM to stimulate the cells. The compound IC50 value was defined as the concentration of test compound which inhibited 50% of the calcium flux induced by LPA alone. IC50 values were determined by fitting data to a 4-parameter logistic equation (GraphPad Prism, San Diego Calif.).
(Calcium flux is commonly read through the fluorescence of an indicator in the cells.)
Regarding `Cc1nc(-c2nnn(C)c2COC(=O)N(C)CC2CCC2)ccc1O[C@@H]1CCCC[C@@H](C(=O)O)C1` (single isomer, unassigned) [Example 2], the half-inhibitory concentration (IC50) stood at 9.5 nM.

On to `Cc1nc(-c2nnn(C)c2COC(=O)N(C)Cc2ccccc2)ccc1OC1CCCCC(C(=O)O)C1` (racemic) [Example 1, (±)-3-((6-(5-(((benzyl(methyl)carbamoyl)oxy)methyl)-1-methyl-1H-1,2,3-triazol-4-yl)-2-methylpyridin-3-yl)oxy)cycloheptane-1-carboxylic Acid], for which the concentration for half-maximal inhibition (IC50) worked out at 16 nM. On the same count and under the same terms, in the case of `Cc1nc(-c2nnn(C)c2COc2cc(C(C)C)ncn2)ccc1OC1CCCCC(C(=O)O)C1` (stereo not drawn) [Example 18] it was 145 nM; in that of `Cc1nc(-c2nnn(C)c2COC(=O)N(C)C2CCCC2)ccc1OC1CCCCC(C(=O)O)C1` (stereo not drawn) [Example 8], 11 nM. The same measure, in the same setting: then `Cc1nc(-c2nnn(C)c2COC(=O)N(C)CC2CC2)ccc1OC1CCCCC(C(=O)O)C1` (stereo not drawn) [Example 7], with 11 nM; and `Cc1nc(-c2nnn(C)c2NC(=O)OCC2CC2)ccc1OC1CCCCC(C(=O)O)C1` (stereo not drawn) [Example 23], with 127 nM; and `COc1cc(OCc2c(-c3ccc(OC4CCCCC(C(=O)O)C4)c(C)n3)nnn2C)ncn1` (stereo not drawn) [Example 21], with 26 nM. Still for that read-out and setting: then `Cc1nc(-c2nnn(C)c2COC(=O)N(C)CC2CCC2)ccc1O[C@@H]1CCCC[C@H](C(=O)O)C1` (single isomer, unassigned) [Example 4], with 19 nM; and `Cc1nc(-c2nnn(C)c2COC(=O)N(C)CCC(C)C)ccc1OC1CCCCC(C(=O)O)C1` (stereo not drawn) [Example 12], with 25 nM. Turning to `CCCN(C)C(=O)OCc1c(-c2ccc(OC3CCCCC(C(=O)O)C3)c(C)n2)nnn1C` (stereo not drawn) [Example 6], the IC50 was determined as 117 nM. `Cc1nc(-c2nnn(C)c2COC(=O)N(C)CC2CCC2)ccc1O[C@@H]1CCCC[C@@H](C(=O)O)C1` (single isomer, unassigned) [Example 3]: the IC50 is 108 nM.

Consider `Cc1nc(-c2nnn(C)c2COC(=O)N(C)C2CCC2)ccc1OC1CCCCC(C(=O)O)C1` (stereo not drawn) [Example 14], for which the concentration for half-maximal inhibition (IC50) was found to be 20 nM. Still for that read-out and setting: then `Cc1nc(-c2nnn(C)c2NC(=O)OCC(C)C)ccc1OC1CCCCC(C(=O)O)C1` (stereo not drawn) [Example 24], with 91 nM; and `Cc1nc(-c2nnn(C)c2COC(=O)N(C)CCC(C)C)ccc1OC1CCCCC(C(=O)O)C1` (stereo not drawn) [Example 11], with 36 nM. Take `Cc1nc(-c2nnn(C)c2COc2cc(C(C)(C)C)ncn2)ccc1OC1CCCCC(C(=O)O)C1` (stereo not drawn) [Example 16]: the IC50 was determined as 154 nM. On the same count and under the same terms, in the case of `Cc1nc(-c2nnn(C)c2COc2cc(C(C)(C)C)ncn2)ccc1OC1CCCCC(C(=O)O)C1` (stereo not drawn) [Example 17] it was 325 nM; in that of `Cc1nc(-c2nnn(C)c2COc2cc(C(C)C)ncn2)ccc1OC1CCCCC(C(=O)O)C1` (stereo not drawn) [Example 19], 48 nM; in that of `Cc1nc(-c2nnn(C)c2NC(=O)O[C@H](C)c2ccccc2)ccc1OC1CCCCC(C(=O)O)C1` (mixture of isomers) [Example 22, (±)-3-((2-methyl-6-(1-methyl-5-((((R)-1-phenylethoxy)carbonyl)amino)-1H-1,2,3-triazol-4-yl)pyridin-3-yl)oxy)cycloheptane-1-carboxylic Acid], 53 nM. On the same count and under the same terms, in the case of `Cc1nc(-c2nnn(C)c2COC(=O)N(C)CC2CCC2)ccc1O[C@@H]1CCCC[C@H](C(=O)O)C1` (single isomer, unassigned) [Example 5] it was 296 nM; in that of `Cc1nc(-c2nnn(C)c2COC(=O)N(C)C2CCC2)ccc1OC1CCCCC(C(=O)O)C1` (stereo not drawn) [Example 13], 51 nM; in that of `Cc1nc(-c2nnn(C)c2COC(=O)N(C)CC(C)C)ccc1OC1CCCCC(C(=O)O)C1` (stereo not drawn) [Example 10], 88 nM. Still for that read-out and setting: then `CCc1cc(OCc2c(-c3ccc(OC4CCCCC(C(=O)O)C4)c(C)n3)nnn2C)ncn1` (racemic) [Example 15, (±)-3-((6-(5-(((6-ethylpyrimidin-4-yl)oxy)methyl)-1-methyl-1H-1,2,3-triazol-4-yl)-2-methylpyridin-3-yl)oxy)cycloheptane-1-carboxylic Acid], with 32 nM.

Consider `COc1cc(OCc2c(-c3ccc(OC4CCCCC(C(=O)O)C4)c(C)n3)nnn2C)ncn1` (stereo not drawn) [Example 20], for which the 50% inhibitory concentration (IC50) is 67 nM.

For the molecule `Cc1nc(-c2nnn(C)c2COC(=O)N(C)CC(C)C)ccc1OC1CCCCC(C(=O)O)C1` (stereo not drawn) [Example 9], the 50% inhibitory concentration (IC50) amounted to 16 nM.

The test system of another assay is human foetal lung fibroblasts.
Test: not given
The following applies: Tager et al. Nature Medicine 2008; cited from earlier work.
With `Cc1noc(-c2ccc(CSCCC(=O)O)cc2)c1NC(=O)OC(C)c1ccccc1Cl` (stereo not drawn) [Ki16425], the “chemotaxis of human foetal lung fibroblasts induced by BAL from IPF patients” value is listed as “blocked”.

The subject of the next assay is highly peritoneal metastatic pancreatic cancer cell line.
Test: not given
The following applies: Yamada et al 2004; cited from earlier work.
Regarding `Cc1noc(-c2ccc(CSCCC(=O)O)cc2)c1NC(=O)OC(C)c1ccccc1Cl` (stereo not drawn) [Ki16425], the “LPA-induced and ascites-induced invasion activity” value is “blocked”.

The next assay has as its system nerve-injured mice.
Test: not given
The following applies: pretreatment, Inoue et al 2004; cited from earlier work.
Take `C[C@@H](N)[C@H]1CC[C@H](C(=O)Nc2ccncc2)CC1` [Example Y-27632]: the allodynia and hyperalgesia entry was “completely abolished”.

The test system of another assay is CTGF.
Test: not given
The following applies: MCT cells, co-treatment with LPA; cited from earlier work.
Take `Cc1noc(-c2ccc(CSCCC(=O)O)cc2)c1NC(=O)OC(C)c1ccccc1Cl` (stereo not drawn) [Ki16425]: the “LPA induction of CTGF expression” value is reported as “almost completely suppressed”.

Another assay has as its system pancreatic cancer cell lines.
Test: not given
To be noted: Yamada et al 2004; cited from earlier work.
On to `Cc1noc(-c2ccc(CSCCC(=O)O)cc2)c1NC(=O)OC(C)c1ccccc1Cl` (stereo not drawn) [Ki16425], for which the “in vitro migration in response to LPA and peritoneal fluid (ascites) from pancreatic cancer patients” value is on record as “effectively blocked”.

A further assay deals with UUO mice.
Test: not given
The following applies: compared with LPA1 (−/−) mice; cited from earlier work.
Consider `Cc1noc(-c2ccc(CSCCC(=O)O)cc2)c1NC(=O)OC(C)c1ccccc1Cl` (stereo not drawn) [Ki16425], for which the “renal fibrosis profile of treated UUO mice” value was “closely resembled the profile of LPA1 (−/−) mice”.
